Each structure is given as a SMILES string.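 Method: 48-hour compound exposure of cells in 96-well plates, five concentrations, linear interpolation of endpoints. Here, GI50 denotes the concentration required for 50% inhibition of growth.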 Activity calls are given as the source filed them. Cut-off read from the data, not from the text of the source: active = GI50 up to about 1.1 µM and inactive = higher.

What all share (assay): NCI-60 cell line screen, 48 h
Assay [1] has as its system UO-31.
Assay [2] relates to KM12.
Assay [3] concerns MOLT-4.
The test system of assay [4] is COLO 205.
Assay [5] relates to RPMI-8226.
Assay [6] has as its system HL-60.
Assay [7] relates to HOP-92.
The test system of assay [8] is MDA-MB-435.
Assay [9] deals with NCI-H522.
For assay [10], the system named is MCF7.
For assay [11], the system named is MDA-MB-231.
Assay [12] relates to 786-0.
The test system of assay [13] is UACC-62.
The subject of assay [14] is SNB-75.
Assay [15] deals with HOP-62.
Assay [16] has as its system HCT-116.
The test system of assay [17] is HCC 2998.
Assay [18] has as its system HT-29.
The test system of assay [19] is A549.
The test system of assay [20] is T47D.

Take `CCCCCCOc1ccc(C(=O)NOC)cc1`: the GI50 in assay [1] is 30.3 µM (inactive); in assay [2], > 100 µM (inactive); in assay [3], 24.8 µM (inactive); in assay [4], > 100 µM (inactive); in assay [5] it was 36 µM (inactive); in [6], 26.9 µM (inactive). The GI50 in assay [7] was > 100 µM (inactive); in [8], > 100 µM (inactive); in assay [9], > 100 µM (inactive); in assay [10], > 100 µM (inactive); in assay [11], 80.5 µM (inactive); in assay [12] it was > 100 µM (inactive). Besides, the GI50 in [13], in [14], in assay [15], in assay [16], in assay [17] and in [18] was > 100 µM (inactive) each time. Also, the GI50 in assay [19] is 66.7 µM (inactive).

Consider `C[N+]1(C)CCC(C#N)(c2ccccc2)CC1`, for which the GI50 in assay [1], in assay [2], in assay [3], in assay [4], in assay [5] and in [6] was > 100 µM (inactive) throughout. Moreover, the GI50 was > 100 µM (inactive) in assay [7]; > 100 µM (inactive) in [10]; > 100 µM (inactive) in [12]; > 100 µM (inactive) in [20]; 35.4 µM (inactive) in [14]; > 100 µM (inactive) in assay [15]. The GI50 in assay [16], in [17], in assay [18] and in assay [19] was > 100 µM (inactive) throughout.

As to `COc1cc(S(=O)(=O)Nc2ccc(-c3csc(N4C(=O)C(C)SC4c4ccccc4)n3)cc2)ccc1Cl` (configuration not stated), the GI50 in assay [1] was > 100 µM (inactive); in assay [2], 0.082 µM (active); in [3] it was 33 µM (inactive); in assay [4] it was 27.2 µM (inactive); in assay [5] it was 38.4 µM (inactive); in [6], 21.1 µM (inactive). The GI50 in [7] is 31.9 µM (inactive); in [8], 24.6 µM (inactive); in assay [9], 33.8 µM (inactive); in assay [10], 17.9 µM (inactive); in assay [12], 20 µM (inactive); in [20], 15.2 µM (inactive). For the same molecule, the GI50 in assay [13] is 21.4 µM (inactive); in assay [14], 0.0555 µM (active); in [16], 34.8 µM (inactive); in assay [18], 11.8 µM (inactive); in assay [19], > 100 µM (inactive).

Turning to `Clc1ccc(C2=NCON=C2c2ccc(Cl)cc2)cc1`, the GI50 in [1] was 15.7 µM (inactive); in assay [2], 15.5 µM (inactive); in assay [3] it was 15.9 µM (inactive); in assay [4], 16.3 µM (inactive); in assay [5] it was 16.8 µM (inactive); in assay [6], 14.5 µM (inactive). Also, the GI50 in assay [7] was 18.4 µM (inactive); in [10], 25.6 µM (inactive); in [11], 18.1 µM (inactive); in assay [12] it was 19.7 µM (inactive); in assay [20] it was 0.71 µM (active); in [13], 18.9 µM (inactive). Also, the GI50 in assay [14] is 24.8 µM (inactive); in assay [15], 25.6 µM (inactive); in [16], 13.6 µM (inactive); in assay [17], 15.2 µM (inactive); in [18], 13.6 µM (inactive); in assay [19], 31.3 µM (inactive).

`O=CC12CCCN1CCC2`: the GI50 in [1], in assay [3], in [4], in assay [8], in assay [9] and in assay [11] was > 100 µM (inactive) each time. Besides, the GI50 in [12], in [20], in [13], in assay [15], in assay [16] and in assay [17] was > 100 µM (inactive) each time. The GI50 in assay [18] and in [19] was > 100 µM (inactive) each time.

For `COC1=CC(=O)C2=C(C1=O)[C@H]1CC[C@]3(C)[C@@H](OC(C)=O)CC[C@H]3[C@@H]1CC2`, the GI50 was > 100 µM (inactive) in assay [1]; 60.3 µM (inactive) in assay [2]; 20.2 µM (inactive) in assay [3]; 44.2 µM (inactive) in assay [4]; 31 µM (inactive) in assay [5]; 16.4 µM (inactive) in assay [6]. The GI50 in assay [7] is 7.93 µM (inactive); in assay [8], 19.2 µM (inactive); in [9] it was > 100 µM (inactive); in [11], 17 µM (inactive); in [12] it was 55.6 µM (inactive); in assay [20] it was 23.2 µM (inactive). Moreover, the GI50 in [14] is > 100 µM (inactive); in [15], > 100 µM (inactive); in assay [16], 29.3 µM (inactive); in assay [18] it was 20.8 µM (inactive); in assay [19], > 100 µM (inactive).

`COC(=O)C(NC(=O)c1ccccc1)c1ccco1` (configuration not stated): the GI50 in assay [1], in assay [2], in [3], in assay [5], in assay [6] and in [7] was > 100 µM (inactive) each time. The GI50 in assay [8], in assay [10], in [12], in assay [20], in assay [13] and in [14] was > 100 µM (inactive) in each case. The GI50 in assay [15], in [16], in [17], in assay [18] and in [19] was > 100 µM (inactive) each time.

As for `C1CN1c1nc(N2CC2)nc(N2CC2)n1`, the GI50 in assay [1] is 7.36 µM (inactive); in [2], 16.2 µM (inactive); in assay [3], 0.495 µM (active); in assay [4], 13.6 µM (inactive); in assay [5] it was 12.5 µM (inactive); in [6] it was 0.649 µM (active). Moreover, the GI50 in [7] was 10 µM (inactive); in assay [8] it was 12.6 µM (inactive); in assay [9] it was 5.21 µM (inactive); in assay [10], 2.16 µM (inactive); in assay [11] it was 20.2 µM (inactive); in assay [12], 2.97 µM (inactive). The GI50 was 1.84 µM (inactive) in assay [13]; 5.66 µM (inactive) in [14]; 1.97 µM (inactive) in assay [15]; 8.55 µM (inactive) in assay [16]; 8.87 µM (inactive) in assay [17]; 13.2 µM (inactive) in assay [18]. In addition, the GI50 in [19] is 4.29 µM (inactive).

Values taken from ChEMBL document CHEMBL1201862, “PubChem BioAssay data set” (2004).
